The source of these data is patent publication EP2562249A1, “Engineered host cells and methods for the production of cis, cis-muconic acid” (Helmholtz-Zentrum für Infektionsforschung GmbH, priority 2011, dated 2013).

Data set [1] relates to P. putida KT2440. Kind of data set: Growth in the presence of the benzoate substrate analogues 3-FB or 3-CIB. It is filed as cell-based. The note with it: MM with 10 mM succinate and 1 mM benzoate, increasing concentrations; 3-FB as compared to 3-CIB. As to the method:
To determine the optimal concentrations of the substrate analogues, P. putida KT2440 was grown in MM with 10 mM succinate and 1 mM benzoate in the presence of increasing concentrations of 3-FB or 3-CIB. The accumulation of fluorocatechol derivatives is known to result in a violet coloration of the medium. When P. putida KT2440 was exposed to 3-FB or 3-CIB a violet coloration of the medium was observed. […] Therefore, two independent batch cultures of NTG-treated P. putida KT2440 cells were cultivated in the presence of 20 mM 3-FB. Batch culture 1 was grown for 14 hours and batch culture 2 for 24 hours, after which the cultures were plated. Individual colonies were screened for their ability to grow with benzoate as the sole source of carbon and energy. Three mutants that could no longer grow using benzoate were isolated from batch 1 and 84 mutants were isolated from batch 2, which represented 0.1 % and 4.4 %, respectively, of the total amount of colonies that were screened. No mutants were found when the NTG-treated P. putida KT2440 cells were not exposed to 3-FB. All mutants accumulated cis, cis-muconate in the medium when grown with succinate in the presence of benzoate. Therefore, the disability of the further conversion of 2-fluoro-cis, cis-muconate by the muconate lactonizing enzyme seems to have caused the selective advantage. […]

Data set [2] has as its target T1, catA2 (catechol 1,2-dioxygenase) (Pseudomonas putida, UniProt Q88I35).
T1 sequence (Q88I35 1-304): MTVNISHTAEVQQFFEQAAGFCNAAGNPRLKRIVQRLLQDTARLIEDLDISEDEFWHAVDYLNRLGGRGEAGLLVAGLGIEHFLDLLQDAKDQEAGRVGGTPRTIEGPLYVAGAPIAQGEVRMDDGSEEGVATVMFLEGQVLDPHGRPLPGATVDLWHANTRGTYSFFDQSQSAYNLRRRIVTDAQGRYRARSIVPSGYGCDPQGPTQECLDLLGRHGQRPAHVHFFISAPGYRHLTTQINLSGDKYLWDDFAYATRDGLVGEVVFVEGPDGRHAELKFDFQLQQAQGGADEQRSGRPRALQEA
Nature of the data set: catA2 activity assay: increase in cis, cis-muconate from catechol measured at A256 with purified His-tagged enzyme. The data set is classed as biochemical, P. putida KT2440. From the text:
(§1) Gene catA2 was amplified from the genome of P. putida KT2440 by PCR using the forward primer 5'- […]-'3 (SEQ ID No. 7) and the reverse primer 5'-[…]-'3 (SEQ ID No. 8) containing a NdeI and XhoI site, respectively. The PCR fragment was ligated into the pET-28a(+) expression vector (Novagen, USA). The catA2 insert was controlled by sequencing after amplification with the T7 and T7 term primer set (Eurofins MWG GmbH, Germany).
(§2) pET-28a(+) with and without the catA2 insert were electro transformed into E. coli BLN21 and plated on LB with kanamycin (50 µg/mL). Transformants containing the plasmid with and without catA2 were grown overnight in 25 mL LB with kanamycin (50 µg/mL) at 37 °C with shaking. […] The purification of CatA2 was monitored with SDS-PAGE and Westernblotting using His-Tag antibodies (Abcam, U. K.).
(§3) The activity of catA2 was assayed by measuring the increase in cis, cis-muconate concentration from catechol in a buffer containing 20 mM Tris-HCl, 0.125 M imidazole (pH 7.8) at A256 using an UV mc2® spectrophotometer (SAFAS, Monaco). In order to determine the km value of the enzyme, the conversion rate of catechol to cis, cis-muconate was measured at 10 different concentrations of catechol ranging between from 0.0001 to 0.05 mM. […] The values for Km, IC50, and Vmax were calculated by Graphpad Prism (Graphpad Software, Inc., USA).

Substrate in data set [3]: Oc1ccccc1O
The description is as above. The data set is classed as biochemical, P. putida KT2440. The note with it: other: substrate catechol, 0.0001 to 0.05 mM, 20 mM Tris-HCl, 0.125 M imidazole, pH 7.8, 37.0 °C.
Text: as §1, §2, §3

With `O=C(O)c1cccc(F)c1` [3-FB, 3-fluorobenzoate], the “Growth of P. putida KT2440” value in data set [1] was “more inhibited”. As a reminder, the IC50 is the point on the concentration scale where inhibition reaches its midpoint. What is called Ki is a measure of affinity in units of concentration, obtained from inhibition or displacement. In data set [2] (at a concentration of 0.05 mM catechol, cis, cis-muconate 0 to 0.2 mM), `O=C(O)/C=C\C=C/C(=O)O` [cis, cis-muconate] had an IC50 of 139 µM. In addition, the Ki in data set [2] (calculated from Km and IC50 using the Cheng-Prusoff equation) was 2800 nM.

B1: catA2 (catechol 1,2-dioxygenase) (Pseudomonas putida KT2440) (protein)
chain: T1 sequence (Q88I35 1-304)
Usually Km stands for the concentration of substrate that gives half-maximal velocity. Turning to B1, the Km in data set [3] is 1000 nM.
